“Also recorded” adds a separate entry of the source. Bridges are numbered along the chain shown (N, C = ends). Where no end group is shown, it is not given here.
Assays:
rKv1.2 = experiment: TEVC, Kv1.2 in Xenopus oocytes; format: cell-based, rat
Excerpt: (§1) For the expression of Kv channels (rKv1.1, rKv1.2, rKv1.3, rKv1.4, rK1.5, rKv1.6, hKv2.1, hKv3.1, rKv4.2, hKv7.1, hKv7.2/7.3, hKv7.4, KQT1 (from the roundworm Caenorhabditis elegans), hKv10.1 (hEAG1), hKv11.1 (hERG1), and Shaker, from Drosophila melanogaster), Nav channels (rNav1.1, rNav1.2, rNav1.3, rNav1.4, hNav1.5, mNav1.6, hNav1.7, hNav1.8, and BgNav (from the cockroach Blattella germanica), as well as the hβ1 and rβ1 subunits, and Cav channels (rCav3.1, hCav3.2, and rCav3.3) in Xenopus oocytes, the linearized plasmids were transcribed using the T7 or SP6 mMESSAGEmMACHINE transcription kit (Ambion, Austin, TX, USA). Mature female animals were purchased from Nasco (Fort Atkinson, WI, USA) and were housed in the Aquatic Facility (KU Leuven) in compliance with the regulations of the European Union (EU) concerning the welfare of laboratory animals as declared in Directive 2010/63/EU. The use of X. laevis oocytes was approved by the Animal Ethics Committee of the KU Leuven, with the license number P186/2019.
(§2) Stage V–VI oocytes were collected from anesthetized female X. laevis frog as previously described, with the frogs anesthetized by placement in a 0.1% tricaine solution (amino benzoic acid ethyl ester; Merck, Kenilworth, NJ, USA). Oocyte microinjection was performed using a microinjector (Drummond Scientifc®, Broomall, PA, USA), with a programmed cRNA injection volume of 4–50 nL, depending on channel subtype. The oocytes were incubated in ND96 solution (96 mM NaCl; 2 mM KCl; 1.8 mM CaCl2; 2 mM MgCl2, and 5 mM HEPES, pH 7.4), supplemented with 50 mg/L of gentamicin sulfate.
(§3) Electrophysiological measurements were performed at room temperature (18–22 °C) using the two-electrode voltage-clamp (TEVC) technique. Data were obtained using a GeneClamp 500 amplifier (Axon Instruments®, Burlingame, CA, USA) and Clampex9 software (Axon Instruments®, USA) was responsible for data acquisition and storage. Glass micropipettes were produced using glass capillaries (borosilicate WPI 1B120-6) and drawn in a WPI (World Precision Instruments®, Sarasota, FL, USA) manual stretcher. The bath and perfusion solutions were either the previously described ND96 (Nav and Kv channels) or calcium-free ND96 supplemented with 10 mM BaCl2 (Cav channels).
Whole-cell currents of oocytes were recorded 1 to 3 days after RNA injection. The current and voltage electrodes were filled with 3 M KCl, and their resistance was adjusted from 1.0 to 2.5 MΩ. […] The current–voltage relationships were determined by 50 ms step depolarizations between −90 and +65 mV using 5 or 10 mV increments. All electrophysiological data were analyzed following the procedures described by Peigneur et al., 2012 [20].
(§4) All values were expressed as means ± SEM. […]

Kv1.5 = experiment: TEVC, Kv1.5 in Xenopus oocytes; format: cell-based, rat; conditions: 1 µM, n ≥ 3
Excerpt: as §1, with “P186/2019. […]” for “P186/2019.”
(§5) Whole-cell currents of oocytes were recorded 1 to 3 days after RNA injection. […] The current–voltage relationships were determined by 50 ms step depolarizations between −90 and +65 mV using 5 or 10 mV increments. All electrophysiological data were analyzed following the procedures described by Peigneur et al., 2012 [20].
as §4

hKv2.1 = experiment: TEVC, Kv2.1 in Xenopus oocytes; format: cell-based, human
Excerpt: as §1, §2, §3
(§6) Whole-cell currents of oocytes were recorded 1 to 3 days after RNA injection. The current and voltage electrodes were filled with 3 M KCl, and their resistance was adjusted from 1.0 to 2.5 MΩ. Currents were sampled at 20 kHz (Nav channels) and 10 kHz (Kv and Cav channels) and filtered using a four-pole Bessel low-pass Bessel filter at 1 kHz for sodium and […] for potassium and calcium, except for the hERG ion channel in which the currents were filtered at 1 kHz. Leak subtraction was performed using a P/4 protocol. Kv1.x currents were evoked by 500 ms depolarizations to 0 mV, followed by a 500 ms pulse to −50 mV from a holding potential of −90 mV. Kv2.1, Kv3.1, Kv4.2, Kv7.x, and KQT1 currents were elicited by 700 ms pulses to +20 mV from a holding potential of −90 mV. Current traces of the hERG1 channel were elicited by applying a +40 mV prepulse for 2 s, followed by a step of −120 mV for 2 s. […] The current–voltage relationships were determined by 50 ms step depolarizations between −90 and +65 mV using 5 or 10 mV increments. All electrophysiological data were analyzed following the procedures described by Peigneur et al., 2012 [20].
as §4

hKv7.1 = experiment: TEVC, Kv7.1 in Xenopus oocytes; format: cell-based, human
Excerpt: as §1, §2, §3, §6, §4

hKv10.1 (hEAG1) = experiment: TEVC, Kv10.1 in Xenopus oocytes; format: cell-based, human; conditions: 1 µM, ND96 pH 7.4, 18–22 °C, n ≥ 3
Excerpt: as §1, with “P186/2019. […]” for “P186/2019.”
as §5, §4

rNav1.2 = experiment: TEVC, Nav1.2 in Xenopus oocytes; format: cell-based, rat
Excerpt: as §1, §2, §3
(§7) Whole-cell currents of oocytes were recorded 1 to 3 days after RNA injection. The current and voltage electrodes were filled with 3 M KCl, and their resistance was adjusted from 1.0 to 2.5 MΩ. Currents were sampled at 20 kHz (Nav channels) and 10 kHz (Kv and Cav channels) and filtered using a four-pole Bessel low-pass Bessel filter at 1 kHz for sodium and […] for potassium and calcium, except for the hERG ion channel in which the currents were filtered at 1 kHz. Leak subtraction was performed using a P/4 protocol. Kv1.x currents were evoked by 500 ms depolarizations to 0 mV, followed by a 500 ms pulse to −50 mV from a holding potential of −90 mV. Kv2.1, Kv3.1, Kv4.2, Kv7.x, and KQT1 currents were elicited by 700 ms pulses to +20 mV from a holding potential of −90 mV. Current traces of the hERG1 channel were elicited by applying a +40 mV prepulse for 2 s, followed by a step of −120 mV for 2 s. Current traces of hEAG1 were elicited by a 2 s depolarization to 0 mV from a holding potential of −90 mV. Sodium current traces were evoked by a 100 ms depolarization to 0 mV. For Cav channels, current traces were elicited by 700 ms depolarizations to −20 mV from a holding potential of −90 mV. The current–voltage relationships were determined by 50 ms step depolarizations between −90 and +65 mV using 5 or 10 mV increments. All electrophysiological data were analyzed following the procedures described by Peigneur et al., 2012 [20].
(§8) All values were expressed as means ± SEM. Differences in ionic currents between the control and toxin conditions were compared by a one-way ANOVA, followed by Dunnett’s multiple comparisons test. Differences were considered statistically significant when […].

mNav1.6 = experiment: TEVC, Nav1.6 in Xenopus oocytes; format: cell-based, mouse
Excerpt: as §1, §2, §3, §6, §4

rCav3.3 = experiment: TEVC, Cav3.3 in Xenopus oocytes; format: cell-based, rat
Excerpt: as §1, §2, §3, §7, §8

[1] = system: T-type voltage-gated calcium channels; experiment: TEVC panel of three T-type Cav channels, voltage dependence; format: cell-based; conditions: 1 µM vs control
Excerpt: as §1, with “P186/2019. […]” for “P186/2019.”
as §5, §4

tested animals = conditions: cited from earlier work
Experimental: Recently, the Hcr 1b-2 sequence was determined, together with two other peptides, named Hcr1b-3 and Hcr1b-4, which share 97.6% and 78.0% of sequence identity, respectively (Figure 1).

[2] = 1 µM, TEVC, ND96 pH 7.4, 18–22 °C, n ≥ 3
[3] = 1 µM, 700 ms pulse to +20 mV from −90 mV, mean ± SEM, n ≥ 3
[4] = 1 µM, 100 ms depolarization to 0 mV, mean ± SEM, n ≥ 3
[5] = 1 µM vs control (ND96 Ca2+ free)

In the case of “GTPCKCHGYIGVYWFMLAGCPNGYGYNLSCPYFLGICCVKK (disulfide 4-37, 6-30, 20-38 (inferred)) [Hcr 1b-2]”, the “gating-modifier effect (voltage-current relationship), Kv1.2” value (rKv1.2; 1 µM) is reported as “non-significant gating-modifier effect”, the “Shift in Vhalf activation, Kv1.2” value (rKv1.2; 1 µM vs control (ND96)) is reported as −4.9 mV and the “effect on potassium current, Kv1.2” value (rKv1.2; [2]) is reported as “activation”. For the same sequence, the “Vhalf activation, Kv1.2” value (rKv1.2; 1 µM, control (ND96) −24.7 ± 0.7, mean ± SEM) was −29.6 ± 0.89 mV, the “activity (inhibition of current), Kv1.5” value (Kv1.5; 500 ms depolarization to 0 mV from −90 mV, mean ± SEM) was 41.9 ± 4.7% and the “effect on potassium current, Kv1.5” value (Kv1.5; TEVC, ND96 pH 7.4, 18–22 °C) was “inhibition”. The “gating-modifier effect (voltage-current relationship), Kv2.1” value (hKv2.1; 1 µM) was “non-significant gating-modifier effect”, the “Shift in Vhalf activation, Kv2.1” value (hKv2.1; 1 µM vs control (ND96)) was 2.6 mV and the “activity (inhibition of current), Kv2.1” value (hKv2.1; [3]) was 32.6 ± 3.4%. For the same sequence, the “effect on potassium current, Kv2.1” value (hKv2.1; [2]) was “inhibition”, the “Vhalf activation, Kv2.1” value (hKv2.1; 1 µM, control (ND96) 5.3 ± 0.3, mean ± SEM) was 8.0 ± 0.2 mV and the “gating-modifier effect (voltage-current relationship), Kv7.1” value (hKv7.1; 1 µM) was “stronger shift”. The “Shift in Vhalf activation, Kv7.1” value (hKv7.1; 1 µM vs control (ND96)) was 6.4 mV, the “activity (inhibition of current), Kv7.1” value (hKv7.1; [3]) was 36.2 ± 1.3% and the “effect on potassium current, Kv7.1” value (hKv7.1; [2]) was “inhibition; also recorded: inhibits”. The “Vhalf activation, Kv7.1” value (hKv7.1; 1 µM, control (ND96) 5.8 ± 0.4, mean ± SEM) was 12.2 ± 0.6 mV, the “effect on potassium current, Kv10.1” value (hKv10.1 (hEAG1)) was “not active” and the “effect on activation or inactivation, Nav1.2” value (rNav1.2; 1 µM) was “no significant effect”. The “Shift in Vhalf activation, Nav1.2” value (rNav1.2; 1 µM vs control (ND96)) was 3.7 mV, the “Shift in Vhalf inactivation, Nav1.2” value (rNav1.2; 1 µM vs control (ND96)) was −1.1 mV and the “reduction of peak amplitude (INa), Nav1.2” value (rNav1.2; [4]) was 52.8 ± 7.9%. For the same sequence, the “Vhalf activation, Nav1.2” value (rNav1.2; 1 µM, control (ND96) −19.2 ± 0.1, mean ± SEM, n ≥ 3) was −15.5 ± 0.2 mV, the “Vhalf inactivation, Nav1.2” value (rNav1.2; 1 µM, control (ND96) −33.6 ± 0.4, mean ± SEM, n ≥ 3) was −34.7 ± 0.6 mV and the “Shift in Vhalf activation, Nav1.6” value (mNav1.6; 1 µM vs control (ND96)) was 3.5 mV. The “Shift in Vhalf inactivation, Nav1.6” value (mNav1.6; 1 µM vs control (ND96)) was −7.6 mV, the “reduction of peak amplitude (INa), Nav1.6” value (mNav1.6; [4]) was 41.8 ± 7.1% and the “Vhalf activation, Nav1.6” value (mNav1.6; 1 µM, control (ND96) −23.5 ± 0.1, mean ± SEM, n ≥ 3) was −20.0 ± 0.1 mV. For the same sequence, the “Vhalf inactivation, Nav1.6” value (mNav1.6; 1 µM, control (ND96) −49.1 ± 0.3, mean ± SEM, n ≥ 3) was −56.7 ± 0.4 mV, the “Shift in Vhalf activation, Cav3.3” value (rCav3.3; [5]) was −2.2 mV and the “Shift in Vhalf inactivation, Cav3.3” value (rCav3.3; [5]) was −2.1 mV. The “higher activity on Cav3.3 than on Cav3.1” value (rCav3.3; 1 µM, Cav3.3 vs Cav3.1) was 9 fold, the “higher activity on Cav3.3 than on Cav3.2” value (rCav3.3; 1 µM, Cav3.3 vs Cav3.2) was 1.6 fold and the “inhibition, Cav3.3” value (rCav3.3; 1 µM, calcium-free ND96 + 10 mM BaCl2, 700 ms depolarization to −20 mV from −90 mV, mean ± SEM, n ≥ 3) was 58.9 ± 9.4%. The “Vhalf activation, Cav3.3” value (rCav3.3; 1 µM, control (ND96 Ca2+ free) −41.7 ± 0.4, mean ± SEM, n ≥ 3) was −43.9 ± 0.5 mV, the “Vhalf inactivation, Cav3.3” value (rCav3.3; 1 µM, control (ND96 Ca2+ free) −47.6 ± 0.2, mean ± SEM, n ≥ 3) was −49.7 ± 0.3 mV and the “changes in voltage–current relationship, Cav3.1–3.3 activation and inactivation” value [1] was “insignificant changes”. For the same sequence, the “signs of neurotoxicity or changes in behavior” value (tested animals) was “None of these three peptides showed signs of neurotoxicity or changes in the behavior”.

Source: paper PMC8878452, “A Tale of Toxin Promiscuity: The Versatile Pharmacological Effects of Hcr 1b-2 Sea Anemone Peptide on Voltage-Gated Ion Channels” (Marine Drugs, 2022)
